Laboratory results published in ChEMBL document CHEMBL2016549, “Bioconversion of silybin to phase I and II microbial metabolites with retained antioxidant activity” (Bioorg Med Chem, 2012).

Tests used:
[1] = system: Radical scavenging activity; assay: Antioxidant activity assessed as DPPH radical scavenging activity by densitometric analysis; format: functional
[2] = system: Radical scavenging activity; assay: Antioxidant activity assessed as DPPH radical scavenging activity by densitometric analysis relative to ascorbic acid; format: functional

SMILES: COc1cc(C2Oc3cc([C@H]4Oc5cc(OS(=O)(=O)O)cc(O)c5C(=O)[C@@H]4O)ccc3OC2CO)ccc1O (mixture of isomers)
- IC50 [1]: 831 µM

SMILES: O=C1O[C@H]([C@@H](O)CO)C(O)=C1O [ASCORBIC ACID]
- IC50 [1]: 7.7 µM

SMILES: COc1cc(C2Oc3cc(-c4oc5cc(OS(=O)(=O)O)cc(O)c5c(=O)c4O)ccc3OC2CO)ccc1O (mixture of isomers)
- IC50 [1]: 99.7 µM

SMILES: COc1cc(C2Oc3cc([C@H]4Oc5cc(O)cc(O)c5C(=O)[C@@H]4O)ccc3OC2CO)ccc1O (mixture of isomers) [SILIBININ]
- IC50 [1]: 284 µM

SMILES: COc1cc(C2Oc3cc([C@H]4Oc5c(O)c(O)cc(O)c5C(=O)[C@@H]4O)ccc3OC2CO)ccc1O (mixture of isomers)
- Activity [2]: 25%
- IC50 [1]: 30.3 µM
